Assay [1] has as its system Streptococcus pneumoniae MTAN. The assay is classed as biochemical.
For a further assay, the system named is Yersinia pestis MTAN. The assay is classed as biochemical.
The target of assay [2] is T1, hsMTAP (Homo sapiens, UniProt Q13126).
T1 sequence (Q13126 1-283): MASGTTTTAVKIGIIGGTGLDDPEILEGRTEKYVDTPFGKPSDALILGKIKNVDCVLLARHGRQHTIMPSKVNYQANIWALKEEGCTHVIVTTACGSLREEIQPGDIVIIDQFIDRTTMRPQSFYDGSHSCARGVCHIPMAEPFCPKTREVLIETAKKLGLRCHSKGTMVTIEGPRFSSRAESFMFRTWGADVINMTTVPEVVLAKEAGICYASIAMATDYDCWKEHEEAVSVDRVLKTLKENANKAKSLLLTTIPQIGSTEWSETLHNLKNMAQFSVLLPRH
In words: MTAP pre-steady-state stopped-flow kinetics. To be noted: 10 μM 2AMTA, 5 μM MTAP.

A further assay concerns the target Helicobacter pylori MTAN (Helicobacter pylori, UniProt Q9ZMY2). In words: 2AMTA continuous fluorescence kinetic assay with hpMTAN. The format is biochemical.
Another assay has as its target Vibrio cholerae MTAN (Vibrio cholerae serotype O1, UniProt Q9KPI8). The format is biochemical. To be noted: enzyme concentration 1 μM, substrate concentration 1 mM.
A further assay deals with T2, Human MTAP (Homo sapiens, UniProt Q13126).
T2 sequence (Q13126 1-283): T1 sequence (Q13126 1-283)
In words: 2AMTA continuous fluorescence kinetic assay with hsMTAP. The format is biochemical.

The test system of another assay is ecMTAN. As to conditions: substrate MTA, ref [20],[28],[29]; cited from earlier work.
The target of assay [3] is T1, hsMTAP. As to conditions: substrate MTA, ref [20],[28],[29]; cited from earlier work.
Assay [4] addresses T3, hpMTAN (Helicobacter pylori, UniProt Q9ZMY2).
T3 sequence (Q9ZMY2 1-230): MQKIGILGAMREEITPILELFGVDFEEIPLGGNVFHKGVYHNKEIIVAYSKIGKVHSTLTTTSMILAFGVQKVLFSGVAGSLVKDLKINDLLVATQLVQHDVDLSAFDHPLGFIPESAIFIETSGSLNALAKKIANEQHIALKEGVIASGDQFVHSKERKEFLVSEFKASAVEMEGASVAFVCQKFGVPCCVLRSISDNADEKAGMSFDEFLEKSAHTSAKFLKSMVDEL
As to conditions: substrate MTA, ref [20],[28],[29]; cited from earlier work.

The test system of assay [5] is Saccharomyces cerevisiae adenine phosphoribosyltransferase (scAPRTase). In words: 2,6-diaminopurine fluorescence assay of scAPRTase. The format is biochemical. As to conditions: 1 mM PRPP.
The target in assay [6] is T1, hsMTAP. To be noted: read-out: Ki∗ literature, ref [21],[22]; cited from earlier work.
Assay [7] deals with T1, hsMTAP. In words: Ki* by 2AMTA fluorescence-based assay, Morrison fit, hsMTAP. As to conditions: read-out: Ki∗ measured, 1–3 mM 2AMTA as substrate, slow-onset tight-binding, Morrison equation. The format is biochemical.
The target of assay [8] is T3, hpMTAN. In words: Ki* by 2AMTA fluorescence-based assay, Morrison fit, hpMTAN. To be noted: read-out: Ki∗ measured, 1–3 mM 2AMTA as substrate, slow-onset tight-binding, Morrison equation. The format is biochemical.
For assay [9], the target named is T3, hpMTAN. As to conditions: read-out: Ki∗ literature, ref [21],[22]; cited from earlier work.
[10] abbreviates: substrate 2AMTA, 100 mM potassium phosphate pH 7.4.

Where two headings read alike, the source gives them in different places.

Chain of Vibrio cholerae MTAN (Q9KPI8 whole entry): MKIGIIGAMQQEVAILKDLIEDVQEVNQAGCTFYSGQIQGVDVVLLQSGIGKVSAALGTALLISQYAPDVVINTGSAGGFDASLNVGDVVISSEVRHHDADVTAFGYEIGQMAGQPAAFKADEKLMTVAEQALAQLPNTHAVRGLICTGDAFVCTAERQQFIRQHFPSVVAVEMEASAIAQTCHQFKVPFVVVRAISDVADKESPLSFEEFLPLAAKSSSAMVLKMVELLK

By kcat is commonly meant the maximal rate divided by the concentration of active sites. Broadly, the Km is the substrate concentration at which the rate is half of its maximum. With 2-amino-5′-methylthioadenosine [2AMTA], the “hydrolysis of 2AMTA” value in assay [1] (enzyme concentration 1 μM, substrate concentration 1 mM) is “unable to hydrolyze 2AMTA at significant rates”; on Vibrio cholerae MTAN it was “unable to hydrolyze 2AMTA at significant rates”. In addition, the kcat in assay [1] (substrate 2AMTA, Streptococcus pneumoniae MTAN, 1 μM enzyme, 1 mM 2AMTA) was <10^−5 s^−1; with Yersinia pestis MTAN (substrate 2AMTA, Yersinia pestis MTAN), 1.1 ± 0.28 s⁻¹; at Helicobacter pylori MTAN (setting [10]), 7.0 ± 0.4 s⁻¹; at Human MTAP (setting [10]), 1.7 ± 0.2 s⁻¹. Besides, the figures for the Km in the assay on Yersinia pestis MTAN, on Helicobacter pylori MTAN (setting [10]) and on Human MTAP (setting [10]) were 11 ± 4.4 µM, 3.1 ± 0.5 µM and 34 ± 7 µM, respectively. Also, the “apparent turnover rate (pre-steady-state)” value on hsMTAP [2] was 270 ± 1 s⁻¹. Moreover, the “decrease of catalytic efficiency (kcat/KM) with 2AMTA relative to MTA” value on Helicobacter pylori MTAN and at Human MTAP was about 10 fold in each case.
In the case of 5′-methylthioadenosine [MTA], the Km is 0.19 ± 0.02 µM in the assay with ecMTAN, 5 ± 1 µM at hsMTAP [3] and 0.6 ± 0.3 µM on hpMTAN [4]. Also, the kcat in the assay with ecMTAN was 2.3 ± 0.1 s⁻¹; on hsMTAP [3], 2.5 ± 0.7 s⁻¹; on hpMTAN [4] it was 12.1 ± 2.3 s⁻¹.
For `Nc1nc(N)c2[nH]cnc2n1` [2,6-diaminopurine], in [5], the “fold decreased kcat compared to adenine” value is about 400 fold, the “fold increased KM compared to adenine” value was “approximately 2 fold” and the “kcat/KM reduced by a factor compared to adenine” value is given as 800 fold.
A word on the Ki: it is the equilibrium dissociation constant of an inhibitor or competing ligand from its target. For `CSC[C@H]1CN(Cc2c[nH]c3c(N)ncnc23)C[C@@H]1O` [MT-DADMe-ImmA, Methylthio-DADMe-Immucillin-A], the inhibition constant Ki was 0.09 ± 0.01 nM on hsMTAP [6], 0.063 ± 0.01 nM at hsMTAP [7], 0.015 ± 0.0014 nM at hpMTAN [8] and 0.089 ± 0.019 nM at hpMTAN [9].
For the molecule `CSCC1NC(c2c[nH]c3c(N)ncnc23)[C@@H](O)[C@H]1O` (stereo partly drawn) [MT-ImmA, Methylthio-Immucillin-A], the Ki is 1 ± 0.5 nM at hsMTAP [6], 0.33 ± 0.068 nM on hsMTAP [7], 0.066 ± 0.011 nM at hpMTAN [8] and 0.04 ± 0.02 nM on hpMTAN [9].
In the case of `Nc1ncnc2c(CN3CC(CSc4ccc(Cl)cc4)[C@H](O)C3)c[nH]c12` (stereo partly drawn) [pCl-PhT-DADMe-ImmA, pCl-PhT-DADMe-Immucillin-A], the Ki is 0.01 ± 0.005 nM on hsMTAP [6], 0.047 ± 0.013 nM at hsMTAP [7], 0.36 ± 0.032 nM at hpMTAN [8] and 0.57 ± 0.09 nM on hpMTAN [9].

(Values after article PMC5434977 (Analytical chemistry, 2016).)
